Measurements taken from PMC11873037 (Nature Communications, 2025).
Blank lines part the entries; values can stand above or below the compound they belong to.

Tests used:
[1] = target: T1, ChREBPα (Rattus norvegicus, UniProt Q8VIP2); experiment: immunostaining, nuclear localization of ChREBPα in INS-1 cells; assay type: cell-based
T1 sequence (Q8VIP2 1-865): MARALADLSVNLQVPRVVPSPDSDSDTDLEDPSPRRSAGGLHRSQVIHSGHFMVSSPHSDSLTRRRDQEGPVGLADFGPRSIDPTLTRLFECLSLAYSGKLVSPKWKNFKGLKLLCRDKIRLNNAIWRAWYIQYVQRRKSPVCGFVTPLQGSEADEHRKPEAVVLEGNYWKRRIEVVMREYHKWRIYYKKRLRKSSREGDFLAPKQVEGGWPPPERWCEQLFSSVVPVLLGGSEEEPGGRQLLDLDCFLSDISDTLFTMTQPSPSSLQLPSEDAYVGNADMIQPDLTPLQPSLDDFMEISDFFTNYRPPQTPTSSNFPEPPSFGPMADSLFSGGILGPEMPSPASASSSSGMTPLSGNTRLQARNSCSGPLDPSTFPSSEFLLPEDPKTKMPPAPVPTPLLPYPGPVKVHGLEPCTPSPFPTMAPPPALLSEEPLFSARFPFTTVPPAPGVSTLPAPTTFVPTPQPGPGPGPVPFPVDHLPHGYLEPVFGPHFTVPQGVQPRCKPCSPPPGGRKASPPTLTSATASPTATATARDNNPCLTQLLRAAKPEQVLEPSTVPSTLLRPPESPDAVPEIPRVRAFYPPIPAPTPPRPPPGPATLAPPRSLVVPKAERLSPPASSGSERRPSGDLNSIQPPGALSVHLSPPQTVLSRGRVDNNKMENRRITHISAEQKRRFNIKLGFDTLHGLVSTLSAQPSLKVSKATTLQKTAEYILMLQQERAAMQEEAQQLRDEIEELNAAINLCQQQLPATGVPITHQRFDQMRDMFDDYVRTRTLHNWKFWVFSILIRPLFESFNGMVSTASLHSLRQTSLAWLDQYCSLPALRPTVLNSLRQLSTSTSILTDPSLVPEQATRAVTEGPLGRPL

[2] = target: T2, ChREBPα/14-3-3β (Homo sapiens, UniProt P31946+Q9NP71); experiment: FA compound titration, stabilization of FITC-ChREBPα peptide/14-3-3β; assay type: binding; conditions: for EC50: EC50, FITC-ChREBPα peptide 10 nM, 14-3-3β 150 nM, mean ± SD, n = 2; for stabilization of the ChREBPα/14-3-3 PPI, in words: FA-based compound titrations
T2 sequence (P31946 1-246): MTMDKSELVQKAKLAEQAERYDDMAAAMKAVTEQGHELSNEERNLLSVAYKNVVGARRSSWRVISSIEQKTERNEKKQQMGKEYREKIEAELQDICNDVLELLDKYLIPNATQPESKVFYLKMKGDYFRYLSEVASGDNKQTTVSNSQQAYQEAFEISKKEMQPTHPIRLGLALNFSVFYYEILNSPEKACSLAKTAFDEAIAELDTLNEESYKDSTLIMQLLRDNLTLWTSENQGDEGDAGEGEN
T2 sequence (Q9NP71 117-142 limits assumed): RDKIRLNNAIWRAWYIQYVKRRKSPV

[3] = system: INS-1 cells; experiment: cell death in glucolipotoxic conditions; assay type: cell-based, rat; conditions: for cell death in glucolipotoxic conditions, dose response: 5 and 10 μM, 20 mM glucose+500 µM palmitate, 48 h
[4] = system: INS-1 cells; experiment: cytotoxicity in low glucose; assay type: cell-based, rat
[5] = system: ChREBPβ; experiment: qPCR ChREBPβ mRNA in human islets; assay type: cell-based; conditions: 10 µM 43, 24 h; high glucose or glucolipotoxicity
[6] = target: T3, ChREBP (Rattus norvegicus, UniProt Q8VIP2); experiment: CRISPR/Cas9 engineered INS-1 cells; assay type: cell-based; conditions: high glucose and glucolipotoxic conditions
T3 sequence (Q8VIP2 1-865): T1 sequence (Q8VIP2 1-865)

[7] = system: ChREBPα/14-3-3; experiment: proximity ligation assay ChREBPα and pan 14-3-3; assay type: cell-based, rat; conditions: high (20 mM) glucose
[8] = system: BRAF, CRAF, p65, USP8, ERα, Pin1, ExoS peptides/14-3-3β; experiment: FA selectivity studies, statement over all other client peptides; assay type: binding; conditions: up to 100 µM
[9] = system: β-cell maturity markers or glucose sensing and processing genes; experiment: qPCR other β-cell maturity markers or glucose sensing and processing genes; assay type: cell-based, human; conditions: 10 µM 43, 24 h
[10] = target: T2, ChREBPα/14-3-3β; experiment: biochemical
[11] = system: primary human islets; experiment: total insulin content; assay type: cell-based
[12] = system: PDX1; experiment: immunostaining PDX1 protein in dispersed islets; assay type: cell-based, human; conditions: 48 h
[13] = system: INS-1 cells; experiment: calcium imaging; assay type: cell-based, rat
[14] = system: INS; experiment: qPCR INS mRNA in human islets; assay type: cell-based; conditions: 10 µM 43, 24 h
[15] = system: ALDH1A3; experiment: qPCR ALDH1A3 mRNA in human islets; assay type: cell-based
[16] = system: primary human islets; experiment: glucose-stimulated insulin secretion; assay type: cell-based; conditions: pre-treated 24 h, high glucose
[17] = system: primary human islets; experiment: insulin secretion stimulation index in response to KCl; assay type: cell-based; conditions: 30 mM KCl
[18] = system: ChREBPα/all seven 14-3-3 isoforms; experiment: FA protein titrations, statement over all seven 14-3-3 isoforms; assay type: binding; conditions: 100 µM 43
[19] = system: PDX1; experiment: qPCR PDX1 mRNA in human islets; assay type: cell-based; conditions: 10 µM 43, 24 h
[20] = system: dispersed human islet cells; experiment: β-cell death after adenoviral ChREBPβ overexpression or shRNA; assay type: cell-based; conditions: 10 μM 43
[21] = system: ChREBPβ; experiment: immunostaining c-term ChREBP; assay type: cell-based, human; conditions: 48 h
[22] = target: T2, ChREBPα/14-3-3β; conditions: fit of 2D titration with thermodynamic equilibrium model; compound 0–500 µM
[23] = system: INS-1 cells; experiment: kinetics of cell proliferation, total cell numbers; assay type: cell-based, rat; conditions: 10 μM 43
[24] = system: TAZ, ExoS, ERα, CRAF, ChREBP peptides/14-3-3 isoforms (γ, ζ, σ); assay type: binding; conditions: 100 µM 43
[25] = system: human TXNIP promoter; experiment: luciferase reporter driven by the human TXNIP promoter in INS-1 cells; assay type: cell-based, rat; conditions: 10 µM 43, 24 h
[26] = system: human islets, β-cells; experiment: SPARKL assay, β-cell death in glucolipotoxicity; assay type: cell-based; conditions: 10 µM; 20 mM glucose+500 μM palmitate
[27] = system: INS-1 cells; experiment: ATP/ADP measurements; assay type: cell-based, rat; conditions: 10 μM 43; high (20 mM) glucose
[28] = system: NFATC1/14-3-3; experiment: proximity ligation assay NFATC1 and pan 14-3-3; assay type: cell-based, rat; conditions: 10 μM 43; high (20 mM) glucose

SMILES: NC(=O)c1ncn([C@@H]2O[C@H](CO)[C@@H](O)[C@H]2O)c1N [AICAR, reference compound]
nuclear translocation of ChREBPα ([1]; 1 mM AICAR): translocation of ChREBPα is not blocked

SMILES: O=C(COc1ccccc1P(=O)(O)O)NCCc1ccc(OCc2ccccn2)cc1 [compound 9]
EC50 [2]: 7.6 ± 0.5 µM
stabilization of the ChREBPα/14-3-3 PPI, in words [2]: increased the stabilization efficiency

SMILES: O=C(COc1ccccc1P(=O)(O)O)NCCc1ccc(OCc2cccnc2)cc1 [compound 10]
stabilization of the ChREBPα/14-3-3 PPI, in words [2]: increased the stabilization efficiency

SMILES: O=C(COc1ccccc1P(=O)(O)O)NCCc1ccc(OCc2ccncc2)cc1 [compound 11]
stabilization of the ChREBPα/14-3-3 PPI, in words [2]: increased the stabilization efficiency

SMILES: O=C(NCCc1ccccc1)C(Oc1ccccc1P(=O)(O)O)c1ccccc1 (stereo not drawn) [compound 12]
Rescue from glucolipotoxicity [3]: nor rescued the cells from glucolipotoxicity
Active in biochemical assays [2]: not active in the biochemical assay
Cytotoxic in low [glucose] [4]: neither generally cytotoxic

SMILES: O=C(COc1ccccc1P(=O)(O)O)NCC(F)(F)c1cccc(F)c1 [compound 43]
upregulation of ChREBPβ at mRNA level [5]: prevented upregulation of ChREBPβ
nuclear translocation of ChREBPα ([1]; glucose + palmitate): preventing ChREBPα’s nuclear translocation
nuclear translocation of ChREBPα ([1]; high glucose): blocked the transient translocation of ChREBPα
build up of nuclear ChREBPβ, in words [6]: prevents the built up of nuclear ChREBPβ
interaction between 14-3-3 and ChREBPα (PLA) [7]: remained unchanged
Rescue from glucolipotoxicity [3]: protected the β-cells from glucolipotoxicity
glucolipotoxic cell death in INS-1 cells ([3]; 10 µM 43, kinetics over 72 h): prevented
cell death in glucolipotoxic conditions, dose response [3]: significant attenuation of cell death
effect on other 14-3-3 client peptides (selectivity) [8]: without affecting any other client peptide
other β-cell maturity markers or glucose sensing and processing genes [9]: unchanged
Kd [10]: 162 µM
insulin content [11]: no effect
PDX1 protein levels in glucolipotoxicity [12]: rescued
calcium upregulation in response to glucose [13]: no effect
INS mRNA downregulation (de-differentiation) in glucolipotoxicity [14]: this de-differentiation was prevented
ALDH1A3 mRNA ([15]; high glucose or glucolipotoxicity): unaffected
ALDH1A3 mRNA ([15]; low glucose): significantly decreased
GSIS stimulation index, in words [16]: improved glucose-stimulated insulin secretion (GSIS) stimulation index (SI)
SI in response to KCl [17]: no effect
PPI stabilization with 14-3-3 isoforms [18]: PPI stabilization among all isoforms
PDX1 mRNA downregulation (de-differentiation) in glucolipotoxicity [19]: this de-differentiation was prevented
protection from apoptosis due to overexpression of ChREBPβ [20]: unable to protect human islet cells from apoptosis
upregulation of ChREBPβ at protein level [21]: prevented upregulation of ChREBPβ
cooperativity factor (α) [22]: 72
glucose-stimulated proliferation [23]: prevented glucose-stimulated proliferation
ChREBPα stabilization selectivity among 14-3-3 isoforms [24]: preserved
Active in biochemical assays [2]: active in biochemical assays
glucose response of the TXNIP gene [25]: prevents the glucose response of the TXNIP gene
β-cell death in glucolipotoxic conditions, in words [26]: remarkable decrease in β-cell death
ATP/ADP ratio [27]: enhanced mitochondrial activity
14-3-3 dissociation from NFATC1 (PLA) [28]: glucose promoted 14-3-3 dissociation from NFATC1
Cytotoxic in low [glucose] [4]: no cytotoxicity

SMILES: O=C(COc1ccccc1P(=O)(O)O)NCC(F)(F)c1ccc(F)c(F)c1 [compound 53]
Rescue from glucolipotoxicity [3]: protected the β-cells from glucolipotoxicity
cell death in glucolipotoxic conditions, dose response [3]: significant attenuation of cell death
effect on other 14-3-3 client peptides (selectivity) [8]: without affecting any other client peptide
Kd [10]: 110 µM
cooperativity factor (α) [22]: 126
Active in biochemical assays [2]: active in biochemical assays
β-cell death in glucolipotoxic conditions, in words [26]: remarkable decrease in β-cell death
Cytotoxic in low [glucose] [4]: no cytotoxicity

Further lines, results first:

EC50 [2]: 17.4 ± 3.2 µM
SMILES: O=C(COc1ccc(OP(=O)(O)O)cc1)NCCc1ccccc1 [compound 19]

stabilization of the ChREBPα/14-3-3 PPI, in words [2]: inactive
SMILES: O=C(COc1ccccc1B(O)O)NCCc1ccccc1 [compound 23]

stabilization of the ChREBPα/14-3-3 PPI, in words [2]: inactive
SMILES: NS(=O)(=O)c1ccccc1OCC(=O)NCCc1ccccc1 [compound 24]
